Values after ≈ are worked out from the molar mass of the structure shown.

Assay [1] has as its target T1, PBP1a from Acinetobacter baumannii (ATCC 19606) (Acinetobacter baumannii, UniProt A0ABX6CK30).
T1 sequence (A0ABX6CK30 1-851): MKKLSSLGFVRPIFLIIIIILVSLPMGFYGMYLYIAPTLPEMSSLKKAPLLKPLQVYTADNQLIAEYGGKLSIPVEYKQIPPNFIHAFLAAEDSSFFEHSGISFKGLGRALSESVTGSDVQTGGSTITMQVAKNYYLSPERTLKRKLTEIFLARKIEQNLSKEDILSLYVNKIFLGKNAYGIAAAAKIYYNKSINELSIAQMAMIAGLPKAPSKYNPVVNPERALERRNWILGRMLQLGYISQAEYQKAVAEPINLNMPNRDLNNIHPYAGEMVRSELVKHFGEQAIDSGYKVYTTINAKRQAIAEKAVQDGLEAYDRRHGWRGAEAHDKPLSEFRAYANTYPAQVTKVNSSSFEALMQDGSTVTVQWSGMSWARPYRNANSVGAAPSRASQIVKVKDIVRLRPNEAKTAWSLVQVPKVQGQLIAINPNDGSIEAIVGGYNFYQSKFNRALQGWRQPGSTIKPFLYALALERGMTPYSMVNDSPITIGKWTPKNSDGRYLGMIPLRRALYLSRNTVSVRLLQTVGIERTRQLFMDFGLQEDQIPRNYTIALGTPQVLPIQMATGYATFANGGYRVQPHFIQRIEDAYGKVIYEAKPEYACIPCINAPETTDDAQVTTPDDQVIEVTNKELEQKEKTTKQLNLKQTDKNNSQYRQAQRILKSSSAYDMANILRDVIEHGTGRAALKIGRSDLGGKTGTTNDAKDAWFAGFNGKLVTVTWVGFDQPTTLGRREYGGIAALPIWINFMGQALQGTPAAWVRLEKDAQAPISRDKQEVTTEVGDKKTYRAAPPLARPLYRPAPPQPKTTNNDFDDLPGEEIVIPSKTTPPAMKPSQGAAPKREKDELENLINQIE
In words: Bocillin-FL fluorescence polarization competition binding, A. baumannii PBP1a. To be noted: fluorescence polarization competition binding assay using Bocillin-FL; read-out: A. baumannii PBP1a Potency. The method, boiled down: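 Purified PBP was preincubated with inhibitor (E. coli PBP3 1.5 μM, 30 min; P. aeruginosa PBP3 0.75 μM, A. baumannii PBP3 0.2 μM and PBP1a 1 μM, 15 min), then Bocillin-FL (0.1 μM; 0.05 μM for PBP1a) added and FP read up to 60 min. EC50 = 50% loss of bound probe.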

The subject of another assay is P. aeruginosa ATCC 35151. In words: microbe, parasite or virus in culture. It counts as cell-based. To be noted: Pseudomonas aeruginosa, ATCC35151, read-out: Minimum inhibitory concentration, P. aeruginosa ATCC 35151.
Another assay has as its system P. aeruginosa CDC-0054. In words: microbe, parasite or virus in culture. It is filed as cell-based. To be noted: Pseudomonas aeruginosa, CDC0054, read-out: Minimum inhibitory concentration, P. aeruginosa CDC-0054.
A further assay concerns A. baumannii CDC-0036. In words: microbe, parasite or virus in culture. It counts as cell-based. To be noted: Acinetobacter baumannii, CDC0036, read-out: MIC, A. baumannii CDC-0036.
For a further assay, the system named is N. gonorrhoeae WHO Q. In words: Liquid broth MIC in Fastidious broth. To be noted: Neisseria gonorrhoeae, read-out: Minimum Inhibitory Concentration (MIC), N. gonorrhoeae WHO Q.

Take `O=C(NCCN1CCN(C(=O)NC(C(=O)N[C@H]2Cc3ccc(F)c(C(=O)O)c3OB2O)c2cc(F)c(O)c(O)c2Cl)C(=O)C1=O)Nc1cccc(O)c1` (stereo partly drawn) [Example 220, (3R)-3-(2-(2-chloro-5-fluoro-3,4-dihydroxyphenyl)-2-(4-(2-(3-(3-hydroxyphenyl)ureido)ethyl)-2,3-dioxopiperazine-1-carboxamido)acetamido)-7-fluoro-2-hydroxy-3,4-dihydro-2H-benzo[e][1,2]oxaborinine-8-carboxylic acid]: in assay [1], the IC50 was over 250 µM. Moreover, the MIC was under 1 mg/L in the assay on P. aeruginosa ATCC 35151, 8 to 16 mg/L (≈ 10.5 to 21 µM) with P. aeruginosa CDC-0054, 8 to 16 mg/L (≈ 10.5 to 21 µM) in the assay with A. baumannii CDC-0036 and over 64 mg/L in the assay with N. gonorrhoeae WHO Q.
Turning to `O=C(CN1CCN(C(=O)NC(C(=O)N[C@H]2Cc3ccc(F)c(C(=O)O)c3OB2O)c2cc(F)c(O)c(O)c2Cl)C(=O)C1=O)Nc1ccc(O)cc1` (stereo partly drawn) [Example 230, (3R)-3-(2-(2-chloro-5-fluoro-3,4-dihydroxyphenyl)-2-(4-(2-((4-hydroxyphenyl)amino)-2-oxoethyl)-2,3-dioxopiperazine-1-carboxamido)acetamido)-7-fluoro-2-hydroxy-3,4-dihydro-2H-benzo[e][1,2]oxaborinine-8-carboxylic acid], in assay [1], the IC50 was over 250 µM. For the same compound, the MIC in the assay on P. aeruginosa ATCC 35151 is under 1 mg/L; in the assay on P. aeruginosa CDC-0054, under 1 mg/L; with A. baumannii CDC-0036 it was 2 to 4 mg/L (≈ 2.73 to 5.47 µM); in the assay on N. gonorrhoeae WHO Q, 16 to 32 mg/L (≈ 21.9 to 43.7 µM).
Regarding `O=C(CN1CCN(C(=O)NC(C(=O)N[C@H]2Cc3ccc(F)c(C(=O)O)c3OB2O)c2cc(F)c(O)c(O)c2Cl)C(=O)C1=O)Nc1cccc(O)c1` (stereo partly drawn) [Example 231, (3R)-3-(2-(2-chloro-5-fluoro-3,4-dihydroxyphenyl)-2-(4-(2-((3-hydroxyphenyl)amino)-2-oxoethyl)-2,3-dioxopiperazine-1-carboxamido)acetamido)-7-fluoro-2-hydroxy-3,4-dihydro-2H-benzo[e][1,2]oxaborinine-8-carboxylic acid], the IC50 in assay [1] was over 250 µM. Also, the MIC in the assay with P. aeruginosa ATCC 35151 was under 1 mg/L; in the assay with P. aeruginosa CDC-0054 it was 2 to 4 mg/L (≈ 2.73 to 5.47 µM); with A. baumannii CDC-0036, 2 to 4 mg/L (≈ 2.73 to 5.47 µM); in the assay on N. gonorrhoeae WHO Q, 16 to 32 mg/L (≈ 21.9 to 43.7 µM).
With `O=C(CN1CCN(C(=O)NC(C(=O)N[C@H]2Cc3ccc(F)c(C(=O)O)c3OB2O)c2cc(F)c(O)c(O)c2Cl)C(=O)C1=O)Nc1ccccc1` (stereo partly drawn) [Example 232, (3R)-3-(2-(2-chloro-5-fluoro-3,4-dihydroxyphenyl)-2-(2,3-dioxo-4-(2-oxo-2-(phenylamino)ethyl)piperazine-1-carboxamido)acetamido)-7-fluoro-2-hydroxy-3,4-dihydro-2H-benzo[e][1,2]oxaborinine-8-carboxylic acid], the IC50 in assay [1] is over 250 µM. In addition, the MIC in the assay on P. aeruginosa ATCC 35151 was under 1 mg/L; in the assay on P. aeruginosa CDC-0054, 2 to 4 mg/L (≈ 2.79 to 5.59 µM); in the assay with A. baumannii CDC-0036 it was 8 to 16 mg/L (≈ 11.2 to 22.4 µM); in the assay on N. gonorrhoeae WHO Q, over 64 mg/L.
On the same counts, the results for `O=C(CN1CCN(C(=O)NC(C(=O)N[C@H]2Cc3ccc(F)c(C(=O)O)c3OB2O)c2cc(F)c(O)c(O)c2Cl)C(=O)C1=O)Nc1ccncc1` (stereo partly drawn) [Example 233, (3R)-3-(2-(2-chloro-5-fluoro-3,4-dihydroxyphenyl)-2-(2,3-dioxo-4-(2-oxo-2-(pyridin-4-ylamino)ethyl)piperazine-1-carboxamido)acetamido)-7-fluoro-2-hydroxy-3,4-dihydro-2H-benzo[e][1,2]oxaborinine-8-carboxylic acid] are over 250 µM, under 1 mg/L, under 1 mg/L, 2 to 4 mg/L (≈ 2.79 to 5.58 µM) and 16 to 32 mg/L (≈ 22.3 to 44.6 µM).
On the same counts, the results for `O=C(CN1CCN(C(=O)NC(C(=O)N[C@H]2Cc3ccc(F)c(C(=O)O)c3OB2O)c2cc(F)c(O)c(O)c2Cl)C(=O)C1=O)Nc1cccnc1` (stereo partly drawn) [Example 234, (3R)-3-(2-(2-chloro-5-fluoro-3,4-dihydroxyphenyl)-2-(2,3-dioxo-4-(2-oxo-2-(pyridin-3-ylamino)ethyl)piperazine-1-carboxamido)acetamido)-7-fluoro-2-hydroxy-3,4-dihydro-2H-benzo[e][1,2]oxaborinine-8-carboxylic acid] are over 250 µM, under 1 mg/L, 2 to 4 mg/L (≈ 2.79 to 5.58 µM), 2 to 4 mg/L (≈ 2.79 to 5.58 µM) and 16 to 32 mg/L (≈ 22.3 to 44.6 µM).
As for `O=C(CN1CCN(C(=O)NC(C(=O)N[C@H]2Cc3ccc(F)c(C(=O)O)c3OB2O)c2cc(F)c(O)c(O)c2Cl)C(=O)C1=O)Nc1nccs1` (stereo partly drawn) [Example 235, (3R)-3-(2-(2-chloro-5-fluoro-3,4-dihydroxyphenyl)-2-(2,3-dioxo-4-(2-oxo-2-(thiazol-2-ylamino)ethyl)piperazine-1-carboxamido)acetamido)-7-fluoro-2-hydroxy-3,4-dihydro-2H-benzo[e][1,2]oxaborinine-8-carboxylic acid], in assay [1], the IC50 was over 250 µM. Also, the MIC is under 1 mg/L in the assay with P. aeruginosa ATCC 35151, 8 to 16 mg/L (≈ 11.1 to 22.1 µM) with P. aeruginosa CDC-0054, 2 to 4 mg/L (≈ 2.77 to 5.53 µM) with A. baumannii CDC-0036 and 16 to 32 mg/L (≈ 22.1 to 44.3 µM) with N. gonorrhoeae WHO Q.
The corresponding values for `O=C(CN1CCN(C(=O)NC(C(=O)N[C@H]2Cc3ccc(F)c(C(=O)O)c3OB2O)c2cc(F)c(O)c(O)c2Cl)C(=O)C1=O)NCc1cccc(O)c1` (stereo partly drawn) [Example 237, (3R)-3-(2-(2-chloro-5-fluoro-3,4-dihydroxyphenyl)-2-(4-(2-((3-hydroxybenzyl)amino)-2-oxoethyl)-2,3-dioxopiperazine-1-carboxamido)acetamido)-7-fluoro-2-hydroxy-3,4-dihydro-2H-benzo[e][1,2]oxaborinine-8-carboxylic acid] are over 250 µM, under 1 mg/L, 8 to 16 mg/L (≈ 10.7 to 21.5 µM), 8 to 16 mg/L (≈ 10.7 to 21.5 µM) and over 64 mg/L.
The corresponding values for `O=C(CN1CCN(C(=O)NC(C(=O)N[C@H]2Cc3ccc(F)c(C(=O)O)c3OB2O)c2cc(F)c(O)c(O)c2Cl)C(=O)C1=O)NCc1ccccc1` (stereo partly drawn) [Example 238] are over 250 µM, under 1 mg/L, 2 to 4 mg/L (≈ 2.74 to 5.48 µM), 8 to 16 mg/L (≈ 11 to 21.9 µM) and over 64 mg/L.
Consider `O=C(CN1CCN(C(=O)N[C@@H](C(=O)N[C@H]2Cc3ccc(F)c(C(=O)O)c3OB2O)c2cc(F)c(O)c(O)c2Cl)C(=O)C1=O)NCc1ccncc1` [Example 239, (R)-3-((R)-2-(2-chloro-5-fluoro-3,4-dihydroxyphenyl)-2-(2,3-dioxo-4-(2-oxo-2-((pyridin-4-ylmethyl)amino)ethyl)piperazine-1-carboxamido)acetamido)-7-fluoro-2-hydroxy-3,4-dihydro-2H-benzo[e][1,2]oxaborinine-8-carboxylic acid], for which, in assay [1], the IC50 is over 250 µM. Further, the MIC in the assay with P. aeruginosa ATCC 35151 was under 1 mg/L; in the assay on P. aeruginosa CDC-0054, 2 to 4 mg/L (≈ 2.74 to 5.47 µM); with A. baumannii CDC-0036 it was 2 to 4 mg/L (≈ 2.74 to 5.47 µM); in the assay on N. gonorrhoeae WHO Q it was over 64 mg/L.
As to `O=C(CN1CCN(C(=O)NC(C(=O)N[C@H]2Cc3ccc(F)c(C(=O)O)c3OB2O)c2cc(F)c(O)c(O)c2Cl)C(=O)C1=O)NCc1cccnc1` (stereo partly drawn) [Example 240, (3R)-3-(2-(2-chloro-5-fluoro-3,4-dihydroxyphenyl)-2-(2,3-dioxo-4-(2-oxo-2-((pyridin-3-ylmethyl)amino)ethyl)piperazine-1-carboxamido)acetamido)-7-fluoro-2-hydroxy-3,4-dihydro-2H-benzo[e][1,2]oxaborinine-8-carboxylic acid], the IC50 in assay [1] was over 250 µM. The MIC was under 1 mg/L in the assay on P. aeruginosa ATCC 35151, under 1 mg/L in the assay on P. aeruginosa CDC-0054, 2 to 4 mg/L (≈ 2.74 to 5.47 µM) in the assay on A. baumannii CDC-0036 and 16 to 32 mg/L (≈ 21.9 to 43.8 µM) in the assay with N. gonorrhoeae WHO Q.
As for `O=C(CN1CCN(C(=O)N[C@@H](C(=O)N[C@H]2Cc3ccc(F)c(C(=O)O)c3OB2O)c2cc(F)c(O)c(O)c2Cl)C(=O)C1=O)NCc1nccs1` [Example 241, (R)-3-((R)-2-(2-chloro-5-fluoro-3,4-dihydroxyphenyl)-2-(2,3-dioxo-4-(2-oxo-2-((thiazol-2-ylmethyl)amino)ethyl)piperazine-1-carboxamido)acetamido)-7-fluoro-2-hydroxy-3,4-dihydro-2H-benzo[e][1,2]oxaborinine-8-carboxylic acid], in assay [1], the IC50 is over 250 µM. Further, the MIC in the assay on P. aeruginosa ATCC 35151 was under 1 mg/L; in the assay with P. aeruginosa CDC-0054, under 1 mg/L; in the assay with A. baumannii CDC-0036 it was 2 to 4 mg/L (≈ 2.71 to 5.43 µM); with N. gonorrhoeae WHO Q, 16 to 32 mg/L (≈ 21.7 to 43.4 µM).

The values above are taken from patent publication US20240270762A1, “PENICILLIN-BINDING PROTEIN INHIBITORS” (priority 2021, published 2024).
